Results from ChEMBL document CHEMBL4138123, “Design, synthesis and biological evaluation of novel pyrazolochalcones as potential modulators of PI3K/Akt/mTOR pathway and inducers of apoptosis in breast cancer cells” (Eur J Med Chem, 2017).

Columns and labels:
SK-OV-3 = assay: Cytotoxicity against human SKOV3 cells assessed as cell growth at 0.01 uM after 48 hrs by sulforhodamine B assay relative to control; assay type: functional; conditions: SK-OV-3, 48 h, read-out: Activity
SR [1] = assay: Cytotoxicity against human SR cells assessed as cell growth at 0.1 uM after 48 hrs by sulforhodamine B assay relative to control; assay type: functional; conditions: read-out: Activity
MDA-MB-468 = assay: Cytotoxicity against human MDA-MB-468 cells assessed as cell growth at 0.01 uM after 48 hrs by sulforhodamine B assay relative to control; assay type: functional; conditions: MDA-MB-468, 48 h, read-out: Activity
SNB-19 = assay: Cytotoxicity against human SNB19 cells assessed as cell growth at 0.01 uM after 48 hrs by sulforhodamine B assay relative to control; assay type: functional; conditions: SNB-19, 48 h, read-out: Activity
RXF 393 = assay: Cytotoxicity against human RXF393 cells assessed as cell growth at 0.1 uM after 48 hrs by sulforhodamine B assay relative to control; assay type: functional; conditions: RXF 393, 48 h, read-out: Activity
A549 = assay: Cytotoxicity against human A549/ATCC cells assessed as cell growth at 1 uM after 48 hrs by sulforhodamine B assay relative to control; assay type: functional; conditions: A549, 48 h, read-out: Activity
OVCAR-3 = assay: Cytotoxicity against human OVCAR3 cells assessed as cell growth at 0.1 uM after 48 hrs by sulforhodamine B assay relative to control; assay type: functional; conditions: OVCAR-3, 48 h, read-out: Activity
MCF7 [2] = assay: Cytotoxicity against human MCF7 cells assessed as cell growth at 1 uM after 48 hrs by sulforhodamine B assay relative to control; assay type: functional; conditions: MCF7, 48 h, read-out: Activity
TK-10 = assay: Cytotoxicity against human TK10 cells assessed as growth inhibition after 48 hrs by sulforhodamine B assay; assay type: functional; conditions: TK-10, 48 h
UACC-257 [3] = assay: Cytotoxicity against human UACC257 cells assessed as cell growth at 10 uM after 48 hrs by sulforhodamine B assay relative to control; assay type: functional; conditions: UACC-257, 48 h, read-out: Activity
UO-31 [4] = assay: Cytotoxicity against human UO31 cells assessed as cell growth at 10 uM after 48 hrs by sulforhodamine B assay relative to control; assay type: functional; conditions: UO-31, 48 h, read-out: Activity
SR [5] = assay: Cytotoxicity against human SR cells assessed as growth inhibition after 48 hrs by sulforhodamine B assay; assay type: functional; conditions: for CC50: read-out: LC50 (the source's name)
UACC-62 [6] = assay: Cytotoxicity against human UACC62 cells assessed as growth inhibition after 48 hrs by sulforhodamine B assay; assay type: functional; conditions: UACC-62, 48 h
BT-549 = assay: Cytotoxicity against human BT549 cells assessed as cell growth at 10 uM after 48 hrs by sulforhodamine B assay relative to control; assay type: functional; conditions: BT-549, 48 h, read-out: Activity
MDA-MB-231 = assay: Cytotoxicity against human MDA-MB-231 cells assessed as cell growth at 1 uM after 48 hrs by sulforhodamine B assay relative to control; assay type: functional; conditions: MDA-MB-231, 48 h, read-out: Activity
IGROV-1 = assay: Cytotoxicity against human IGROV1 cells assessed as cell growth at 10 uM after 48 hrs by sulforhodamine B assay relative to control; assay type: functional; conditions: IGROV-1, 48 h, read-out: Activity
786-0 [7] = assay: Cytotoxicity against human 786-0 cells assessed as cell growth at 0.01 uM after 48 hrs by sulforhodamine B assay relative to control; assay type: functional; conditions: 786-0, 48 h, read-out: Activity
NCI-H226 = assay: Cytotoxicity against human NCI-H226 cells assessed as cell growth at 0.01 uM after 48 hrs by sulforhodamine B assay relative to control; assay type: functional; conditions: NCI-H226, 48 h, read-out: Activity
ACHN = assay: Cytotoxicity against human ACHN cells assessed as cell growth at 0.1 uM after 48 hrs by sulforhodamine B assay relative to control; assay type: functional; conditions: read-out: Activity
UACC-257 [8] = assay: Cytotoxicity against human UACC257 cells assessed as cell growth at 100 uM after 48 hrs by sulforhodamine B assay relative to control; assay type: functional; conditions: UACC-257, 48 h, read-out: Activity
SK-MEL-5 = assay: Cytotoxicity against human SK-MEL-5 cells assessed as cell growth at 0.1 uM after 48 hrs by sulforhodamine B assay relative to control; assay type: functional; conditions: SK-MEL-5, 48 h, read-out: Activity
SW-620 = assay: Cytotoxicity against human SW620 cells assessed as cell growth at 0.01 uM after 48 hrs by sulforhodamine B assay relative to control; assay type: functional; conditions: SW-620, 48 h, read-out: Activity
A498 [9] = assay: Cytotoxicity against human A498 cells assessed as cell growth at 0.01 uM after 48 hrs by sulforhodamine B assay relative to control; assay type: functional; conditions: A498, 48 h, read-out: Activity
UO-31 [10] = assay: Cytotoxicity against human UO31 cells assessed as growth inhibition after 48 hrs by sulforhodamine B assay; assay type: functional; conditions: UO-31, 48 h
A498 [11] = assay: Cytotoxicity against human A498 cells assessed as cell growth at 100 uM after 48 hrs by sulforhodamine B assay relative to control; assay type: functional; conditions: A498, 48 h, read-out: Activity
A498 [12] = assay: Cytotoxicity against human A498 cells assessed as cell growth at 1 uM after 48 hrs by sulforhodamine B assay relative to control; assay type: functional; conditions: A498, 48 h, read-out: Activity
RPMI-8226 = assay: Cytotoxicity against human RPMI8226 cells assessed as growth inhibition after 48 hrs by sulforhodamine B assay; assay type: functional; conditions: RPMI-8226, 48 h
SK-MEL-28 = assay: Cytotoxicity against human SK-MEL-28 cells assessed as cell growth at 10 uM after 48 hrs by sulforhodamine B assay relative to control; assay type: functional; conditions: SK-MEL-28, 48 h, read-out: Activity
NCI-H522 = assay: Cytotoxicity against human NCI-H522 cells assessed as growth inhibition after 48 hrs by sulforhodamine B assay; assay type: functional; conditions: NCI-H522, 48 h
UACC-62 [13] = assay: Cytotoxicity against human UACC62 cells assessed as cell growth at 10 uM after 48 hrs by sulforhodamine B assay relative to control; assay type: functional; conditions: UACC-62, 48 h, read-out: Activity
U-251 = assay: Cytotoxicity against human U251 cells assessed as cell growth at 100 uM after 48 hrs by sulforhodamine B assay relative to control; assay type: functional; conditions: U-251, 48 h, read-out: Activity
DU-145 = assay: Cytotoxicity against human DU145 cells assessed as cell growth at 0.01 uM after 48 hrs by sulforhodamine B assay relative to control; assay type: functional; conditions: DU-145, 48 h, read-out: Activity
786-0 [14] = assay: Cytotoxicity against human 786-0 cells assessed as growth inhibition after 48 hrs by sulforhodamine B assay; assay type: functional; conditions: 786-0, 48 h
MOLT-4 = assay: Cytotoxicity against human MOLT4 cells assessed as cell growth at 0.01 uM after 48 hrs by sulforhodamine B assay relative to control; assay type: functional; conditions: MOLT-4, 48 h, read-out: Activity
MCF7 [15] = assay: Cytotoxicity against human MCF7 cells assessed as growth inhibition after 48 hrs by MTT assay; assay type: functional, cell-based; conditions: MCF7, 48 h

COc1ccc(-c2cc(/C=C/C(=O)c3ccc(OC)c(OC)c3)[nH]n2)cc1
growth at 0.01 µM (SK-OV-3): 109% | growth at 0.1 µM (SR [1]): 106% | growth at 0.01 µM (MDA-MB-468): 87% | growth at 0.01 µM (SNB-19): 96% | growth at 0.1 µM (RXF 393): 93% | growth at 1 µM (A549): 77% | growth at 0.1 µM (OVCAR-3): 104% | growth at 1 µM (MCF7 [2]): 27% | GI50 (TK-10): 2110 nM | LC50 (TK-10): 8780 nM | TGI (TK-10): 4310 nM | growth at 10 µM (UACC-257 [3]): -67% | growth at 10 µM (UO-31 [4]): -96% | GI50 (SR [5]): 670 nM | TGI (SR [5]): 3740 nM | CC50 (SR [5]): > 100000 nM | GI50 (UACC-62 [6]): 1650 nM | LC50 (UACC-62 [6]): 6790 nM | TGI (UACC-62 [6]): 3350 nM | growth at 10 µM (BT-549): -70% | growth at 1 µM (MDA-MB-231): 79% | growth at 10 µM (IGROV-1): -60% | growth at 0.01 µM (786-0 [7]): 100% | growth at 0.01 µM (NCI-H226): 83% | growth at 0.1 µM (ACHN): 96% | growth at 100 µM (UACC-257 [8]): -100% | growth at 0.1 µM (SK-MEL-5): 93% | growth at 0.01 µM (SW-620): 99% | growth at 0.01 µM (A498 [9]): 91% | GI50 (UO-31 [10]): 1170 nM | LC50 (UO-31 [10]): 5100 nM | TGI (UO-31 [10]): 2440 nM | growth at 100 µM (A498 [11]): -90% | growth at 1 µM (A498 [12]): 69% | GI50 (RPMI-8226): 320 nM | LC50 (RPMI-8226): 8160 nM | TGI (RPMI-8226): 1330 nM | growth at 10 µM (SK-MEL-28): -95% | GI50 (NCI-H522): 410 nM | LC50 (NCI-H522): 5910 nM | TGI (NCI-H522): 1390 nM | growth at 10 µM (UACC-62 [13]): -77% | growth at 100 µM (U-251): -100% | growth at 0.01 µM (DU-145): 104% | GI50 (786-0 [14]): 1600 nM | LC50 (786-0 [14]): 5960 nM | TGI (786-0 [14]): 3090 nM | growth at 0.01 µM (MOLT-4): 105% | IC50 (MCF7 [15]): 500 nM

COc1ccc(C(=O)/C=C/c2cc(-c3cc(OC)c(OC)c(OC)c3)n[nH]2)cc1OC
growth at 0.01 µM (SK-OV-3): 100% | growth at 0.1 µM (SR [1]): 81% | growth at 0.01 µM (MDA-MB-468): 89% | growth at 0.01 µM (SNB-19): 91% | growth at 0.1 µM (RXF 393): 100% | growth at 1 µM (A549): 84% | growth at 0.1 µM (OVCAR-3): 100% | growth at 1 µM (MCF7 [2]): 31% | LC50 (TK-10): 5100 nM | TGI (TK-10): 2600 nM | growth at 10 µM (UACC-257 [3]): -98% | growth at 10 µM (UO-31 [4]): -97% | TGI (SR [5]): > 100000 nM | CC50 (SR [5]): > 100000 nM | LC50 (UACC-62 [6]): 5980 nM | TGI (UACC-62 [6]): 3220 nM | growth at 10 µM (BT-549): -88% | growth at 1 µM (MDA-MB-231): 77% | growth at 10 µM (IGROV-1): -84% | growth at 0.01 µM (786-0 [7]): 96% | growth at 0.01 µM (NCI-H226): 98% | growth at 0.1 µM (ACHN): 97% | growth at 100 µM (UACC-257 [8]): -97% | growth at 0.1 µM (SK-MEL-5): 96% | growth at 0.01 µM (SW-620): 101% | growth at 0.01 µM (A498 [9]): 97% | LC50 (UO-31 [10]): 5170 nM | TGI (UO-31 [10]): 2570 nM | growth at 100 µM (A498 [11]): -96% | growth at 1 µM (A498 [12]): 78% | LC50 (RPMI-8226): > 100000 nM | TGI (RPMI-8226): 1110 nM | growth at 10 µM (SK-MEL-28): -88% | LC50 (NCI-H522): 825 nM | TGI (NCI-H522): 390 nM | growth at 10 µM (UACC-62 [13]): -92% | growth at 100 µM (U-251): -99% | growth at 0.01 µM (DU-145): 104% | LC50 (786-0 [14]): 5820 nM | TGI (786-0 [14]): 2860 nM | growth at 0.01 µM (MOLT-4): 102% | IC50 (MCF7 [15]): 510 nM
